Reference: patent publication US7326700B2, “Cyclohexenyl phenyl carboxamides tocolytic oxytocin receptor antagonists” (Wyeth, priority 2001, dated 2008)
Where a name gives a salt, the structure may show the parent alone.

Each molecule was assayed against T1, human vasopressin V1a receptor subtype (Homo sapiens, UniProt P37288) (assay: Vasopressin binding in CHO cell membranes expressing human vasopressin V1a subtype receptors ([3H]Manning ligand radioligand binding)). Details: 100 nM.
T1 construct: host or cells: CHO cells, stably transfected (pZeoSV vector for the Thibonnier line)
From the text: Chinese hamster ovary cells (CHO cells) stably transfected with the human vasopressin V1a subtype receptors were either obtained from Biosignal Inc., 1744 rue Williams, Montreal, Quebec, Canada or obtained from M. Thibonnier, Case Western Reserve University School of Medicine, Cleveland, Ohio.
CHO cells transfected with the human vasopressin V1a subtype receptors obtained from M. Thibonnier (pZeoSV vector) are allowed to grow to confluency (approx. >90%) in T-150 flasks under sterile conditions, in a cell culture medium consisting of F-12 Nutrient Mixture (HAM) with L-glutamine (Gibco Cat. #11765-054) containing 15 mM HEPES (Gibco Cat. #15630-080), 1% antibiotic/antimycotic (add 5 mL 100×, Gibco Cat. #15240-062 per 500 mL F-12), 250 μg/mL Zeocin (add 1.25 mL of 100 mg/mL Invitrogen R-250-01 per 500 mL F-12) and 10% Fetal Bovine Serum (Qualified, heat inactivated, Gibco Cat. #16140-063). The medium is removed by aspiration and the cells are washed with 10 mL of Hank's Balanced Salt solution (Gibco Cat. #14175-095). The salt solution is removed by aspiration and the cells are trypsinized with 5 mL of trypsin-EDTA (0.05% trypsin, 0.53 mM EDTA-4Na, Gibco Cat. #25300-070) for 1 min. The trypsin is removed by aspiration and the cells dislodged by tapping. Cell Culture medium (eg, 30 mL for 1:30 split) is immediately added and mixed well to inactivate trypsin. 1 mL of detached cells is added to new culture flasks containing fresh cell culture medium (eg, into 25 mL per T-150 flask), and mixed gently. The cells are incubated at 37° C. in 5% CO2. The medium is changed at 3 to 4 days interval (or as appropriate). The cells grow to confluency (approx. >75%-95%) within 7-8 days. All steps are done under sterile conditions.
The cells are washed twice gently with Hank's Balanced Salt solution (e.g,. use 10 mL per T-150 flask). The excess is removed and the cells are bathed for 15-30 min. in an enzyme-free Cell Dissociation Buffer (e.g. use 8 mL Hank's Based, Gibco Cat. #13150-016 per T-150 flask) until the cells are loosened. The contents are transferred to centrifuge tubes (50 mL) kept in an ice bath. All subsequent steps are done at 4° C. The tubes are centrifuged at 300×g for 15 min (1380 rpm on SORVAL, Model RT6000D, using the rotor for 50 mL tubes). The supernatant is discarded and the cells suspended in homogeneizing buffer (10 mM Tris-HCl containing 0.25 M sucrose and 1 mM EDTA, pH 7.4) ensuring that the volume of the buffer is about ten times the volume of the cell pellet. The cells are pooled into a centrifuge tube (50 mL) and homogenized with Polytron at setting 6 for 10 sec. The homogenate is transferred into a Potter-Elvjehm homogenizer and homogenized with 3 strokes. The homogenate is centrifuged at 1500×g for 10 min at 4° C. (3100 rpm using SORVAL, model RT6000D, using the rotor for 50 mL tubes). The pellet is discarded. The supernatant is centrifuged at 100,000×g for 60 min. at 4° C. (Beckman L8-80M ultracentrifuge; spin at 37,500 rpm with rotor type 70 Ti for 50 mL tubes; 38,000 rpm with type 80Ti for 15 mL tubes; or 35,800 rpm with rotor type 45Ti). The supernantant is discarded and the pellet suspended in 3 to 4 mL of Tris buffer (50 mM TRIS-HCl, pH 7.4). The protein content is estimated by the Bradford or Lowry method. The volume of the membrane suspension is adjusted with the membrane buffer (50 mM Tris-HCl containing 0.1% BSA and 0.1 mM PMSF) to give 3.0 mg/mL (or as appropriate) of protein. The membranes are aliquoted and stored at −70° C.
In wells of a 96-well format microtiter plate, is added 90, 110 or 130 μL (to make up a final volume of 200 μL) of assay buffer containing 50 mM of Tris-HCl (pH 7.4), BSA (heat inactivated, protease-free), […], 1 mg % aprotinin, 1 mg % leupeptin, 2 mg % 1,10-phenanthroline, 10 mg % trypsin inhibitor, and 0.1 mM PMSF. The inhibitors are added on the day of the experiment. […]

T1 sequence (P37288 whole entry): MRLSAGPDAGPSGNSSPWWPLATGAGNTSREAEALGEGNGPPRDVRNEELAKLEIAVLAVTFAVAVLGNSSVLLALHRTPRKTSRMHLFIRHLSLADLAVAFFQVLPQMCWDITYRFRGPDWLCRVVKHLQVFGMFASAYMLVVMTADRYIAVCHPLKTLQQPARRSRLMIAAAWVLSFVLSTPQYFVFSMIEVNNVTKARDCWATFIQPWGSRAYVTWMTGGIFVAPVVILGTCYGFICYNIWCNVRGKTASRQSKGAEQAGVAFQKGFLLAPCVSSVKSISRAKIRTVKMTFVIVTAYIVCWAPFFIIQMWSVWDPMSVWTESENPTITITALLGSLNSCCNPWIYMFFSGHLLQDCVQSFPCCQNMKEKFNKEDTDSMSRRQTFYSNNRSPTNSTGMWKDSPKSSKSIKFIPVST

inhibition at 0.1 µM	V1a % inhibition @ 100 nM	SMILES
19%		COc1cc(C2=CCCCC2)c(Cl)cc1C(=O)N1Cc2ccc(C(=O)N(C)CCCN(C)C)n2Cc2ccccc21 [Example 2, 10-(5-Chloro-4-cyclohex-1-en-1-yl-2-methoxybenzoyl)-N-[3-(dimethylamino)propyl]-N-methyl-10,11-dihydro-5H-pyrrolo[2,1-c][1,4]benzodiazepine-3-carboxamide]
26%		Cc1cc(C(=O)N2Cc3ccc(C(=O)N4CCN(C)CC4)n3Cc3ccccc32)ccc1C1=CCCCC1 [Example 4, [10-(4-Cyclohex-1-en-1-yl-3-methyl-benzoyl)-10,11-dihydro-5H-pyrrolo[2,1-c][1,4]benzodiazepin-3-yl]-(4-methyl-piperazin-1-yl)-methanone]
56%		Cc1cc(C(=O)N2Cc3ccc(C(=O)N4CCN(CCCN(C)C)CC4)n3Cc3ccccc32)ccc1C1=CCCCC1 [Example 5, [10-(4-Cyclohex-1-en-1-yl-3-methyl-benzoyl)-10,11-dihydro-5H-pyrrolo[2,1-c][1,4]benzodiazepin-3-yl]-[4-(3-dimethylamino-propyl)-piperazin-1-yl]-methanone]
4%		Cc1cc(C(=O)N2Cc3ccc(C(=O)N4CCN(C)CC4)n3Cc3ccccc32)ccc1C1=CCCc2ccccc21 [Example 6, {10-[4-(3,4-Dihydro-naphthalen-1-yl)-3-methyl-benzoyl]-10,11-dihydro-5H-benzo[e]pyrrolo[1,2-a][1,4]diazepin-3-yl}-(4-methyl-piperazin-1-yl)-methanone]
7%		Cc1cc(C(=O)N2Cc3ccc(C(=O)N4CCN(CCCN(C)C)CC4)n3Cc3ccccc32)ccc1C1=CCCc2ccccc21 [Example 7, {10-[4-(3,4-Dihydro-naphthalen-1-yl)-3-methyl-benzoyl]-10,11-dihydro-5H-pyrrolo[2,1-c][1,4]benzodiazepin-3-yl}-[4-(3-dimethylamino-propyl)-piperazin-1-yl]-methanone]
52%		CC1=C(c2ccc(C(=O)N3Cc4ccc(C(=O)N5CCN(C)CC5)n4Cc4ccccc43)cc2C)CCCC1O (stereo not shown) [Example 10, [4-(3-Hydroxy-2-methyl-cyclohex-1-en-1-yl)-3-methyl-phenyl]-[3-(4-methyl-piperazine-1carbonyl)-10,11-dihydro-5H-pyrrolo[2,1-c][1,4]benzodiazepin-10-yl]-methanone]
	34%	Cc1cc(C(=O)N2Cc3ccc(C(=O)N4CCCN(C)CC4)n3Cc3ccccc32)ccc1C1=CCCCC1 [Example 13, {10-[4-(1-Cyclohex-1-en-1-yl)-3-methylbenzoyl]-10,11-dihydro-5H-pyrrolo[2,1-c][1,4]benzodiazepin-3-yl}(4-methyl-1,4-diazepan-1-yl)methanone]
	24%	Cc1cc(C(=O)N2Cc3ccc(C(=O)NCCCN(C)C)n3Cc3ccccc32)ccc1C1=CCCCC1 [Example 14, 10-[4-(1-Cyclohex-1-en-1-yl)-3-methylbenzoyl]-N-[3-(dimethylamino)propyl]-10,11-dihydro-5H-pyrrolo[2,1-c][1,4]benzodiazepine-3-carboxamide]
	71%	Cc1cc(C(=O)N2Cc3ccc(C(=O)N(C)CCN(C)C)n3Cc3ccccc32)ccc1C1=CCCCC1 [Example 15, 10-[4-(1-Cyclohex-1-en-1-yl)-3-methylbenzoyl]-N-[2-(dimethylamino)ethyl]-N-methyl-10,11-dihydro-5H-pyrrolo[2,1-c][1,4]benzodiazepine-3-carboxamide]
	55%	Cc1cc(C(=O)N2Cc3ccc(C(=O)N(C)CCCN(C)C)n3Cc3ccccc32)ccc1C1=CCCCC1 [Example 16, 10-[4-(1-Cyclohex-1-en-1-yl)-3-methylbenzoyl]-N-[3-(dimethylamino)propyl]-N-methyl-10,11-dihydro-5H-pyrrolo[2,1-c][1 ,4]benzodiazepine-3-carboxamide]
	30%	Cc1cc(C(=O)N2Cc3ccc(C(=O)N4CCC(N5CCCCC5)CC4)n3Cc3ccccc32)ccc1C1=CCCCC1 [Example 17, {10-[4-(1-Cyclohex-1-en-1-yl)-3-methylbenzoyl]-10,11-dihydro-5H-pyrrolo[2,1-c][1,4]benzodiazepin-3-yl}[4-(1-piperidinyl)-1-piperidinyl]methanone]
	7%	Cc1cc(C(=O)N2Cc3ccc(C(=O)NCCCn4ccnc4)n3Cc3ccccc32)ccc1C1=CCCCC1 [Example 18, 10-[4-(1-Cyclohex-1-en-1-yl)-3-methylbenzoyl]-N-[3-(1H-imidazol-1-yl)propyl]10,11-dihydro-5H-pyrrolo[2,1-c][1,4]benzodiazepine-3-carboxamide]
	33%	Cc1cc(C(=O)N2Cc3ccc(C(=O)N4CCC(N5CCCC5)CC4)n3Cc3ccccc32)ccc1C1=CCCCC1 [Example 19, {10-[4-(1-Cyclohex-1-en-1-yl)-3-methylbenzoyl]-10,11-dihydro-5H-pyrrolo[2,1c][1,4]benzodiazepin-3-yl}[4-(1-pyrrolidinyl)-1-piperidinyl]methanone]
	23%	Cc1cc(C(=O)N2Cc3ccc(C(=O)NCCN4CCCCC4)n3Cc3ccccc32)ccc1C1=CCCCC1 [Example 20, 10-[4-(1-Cyclohex-1-en-1-yl)-3-methylbenzoyl]-N-[2-(1-piperidinyl)ethyl]-10,11-dihydro-5H-pyrrolo[2,1-c][1,4]benzodiazepine-3-carboxamide]
	28%	Cc1cc(C(=O)N2Cc3ccc(C(=O)NCCC4CCCN4C)n3Cc3ccccc32)ccc1C1=CCCCC1 (stereo not shown) [Example 21, 10-[4-(1-Cyclohex-1-en-1-yl)-3-methylbenzoyl]-N-[2-(1-methyl-2-pyrrolidinyl)ethyl]-10,11-dihydro-5H-pyrrolo[2,1-c][1,4]benzodiazepine-3-carboxamide]
	34%	Cc1cc(C(=O)N2Cc3ccc(C(=O)N4CCN(CCN(C)C)CC4)n3Cc3ccccc32)ccc1C1=CCCCC1 [Example 22, {10-[4-(1-Cyclohex-1-en-1-yl)-3-methylbenzoyl]-10,11-dihydro-5H-pyrrolo[2,1-c][1,4]benzodiazepin-3-yl}{4-[2-(dimethylamino)ethyl]-1-piperazinyl}methanone]
	27%	Cc1cc(C(=O)N2Cc3ccc(C(=O)N4CCN(CCN5CCOCC5)CC4)n3Cc3ccccc32)ccc1C1=CCCCC1 [Example 23, {10-[4-(1-Cyclohex-1-en-1-yl)-3-methylbenzoyl]-10,11-dihydro-5H-pyrrolo[2,1-c][1,4]benzodiazepin-3-yl}{4-[2-(4-morpholinyl)ethyl]-1-piperazinyl}methanone]
	12%	C=CCN1CCN(C(=O)c2ccc3n2Cc2ccccc2N(C(=O)c2ccc(C4=CCCCC4)c(C)c2)C3)CC1 [Example 24, (4-Allyl-1-piperazinyl){10-[4-(1-cyclohex-1-en-1-yl)-3-methylbenzoyl]-10,11-dihydro-5H-pyrrolo[2,1-c][1,4]benzodiazepin-3-yl}methanone]

Same assay, conditions: value in parentheses

IC50	SMILES
0.977 µM	COc1cc(C2=CCCCC2)c(Cl)cc1C(=O)N1Cc2ccc(C(=O)N(C)CCCN(C)C)n2Cc2ccccc21 [Example 3, 10-(5-Chloro-4-cyclohex-1-en-1-yl-2-methoxybenzoyl)-N-[3-(dimethylamino)propyl]-N-methyl-10,11-dihydro-5H-pyrrolo[2,1-c][1,4]benzodiazepine-3-carboxamide citric acid salt]
